Assay results as given in patent publication US12011506B2, “Combination and uses and treatments thereof” (priority 2017, dated 2024).

assay: Established and other potentially significant drug interactions with JULUCA (effect on concentration); format: in vivo, human; settings: based on drug interaction trials or predicted interactions
Description: These recommendations are based on either drug interaction trials of individual components or predicted interactions due to the expected magnitude of interaction and potential for serious adverse events or loss of efficacy.

Molecule | Effect on Concentration of the concomitant drug
CCC(=O)C(CC(C)N(C)C)(c1ccccc1)c1ccccc1 (stereo not shown) [Methadone] | ↓Methadone
CO[C@H]1/C=C/O[C@@]2(C)Oc3c(C)c(O)c4c(c3C2=O)C2=NC3(CCN(CC(C)C)CC3)NC2=C(NC(=O)/C(C)=C\C=C\[C@H](C)[C@H](O)[C@@H](C)[C@@H](O)[C@@H](C)[C@H](OC(C)=O)[C@@H]1C)C4=O [Rifabutin] | ↔Rifabutin
CN(CCOc1ccc(NS(C)(=O)=O)cc1)CCc1ccc(NS(C)(=O)=O)cc1 [Dofetilide] | ↑Dofetilide

same assay, conditions: concomitant drug with JULUCA; based on drug interaction trials or predicted interactions

Molecule | Effect on Concentration of Rilpivirine | Effect on Concentration of Dolutegravir
C[C@@H]1C[C@H]2[C@@H]3CCC4=CC(=O)C=C[C@]4(C)[C@@]3(F)[C@@H](O)C[C@]2(C)[C@@]1(O)C(=O)CO [Dexamethasone] | ↓Rilpivirine | 
CO[C@H]1/C=C/O[C@@]2(C)Oc3c(C)c(O)c4c(O)c(c(/C=N/N5CCN(C)CC5)c(O)c4c3C2=O)NC(=O)/C(C)=C\C=C\[C@H](C)[C@H](O)[C@@H](C)[C@@H](O)[C@@H](C)[C@H](OC(C)=O)[C@@H]1C [Rifampin] | ↓Rilpivirine | 
NC(=O)N1c2ccccc2C=Cc2ccccc21 [Carbamazepine] | ↓Rilpivirine | 
COc1ccc2nc([S@@+]([O-])Cc3ncc(C)c(OC)c3C)[nH]c2c1 [Esomeprazole] | ↓Rilpivirine | 
CC[C@H]1OC(=O)[C@H](C)[C@@H](O[C@H]2C[C@@](C)(OC)[C@@H](O)[C@H](C)O2)[C@H](C)[C@@H](O[C@@H]2O[C@H](C)C[C@H](N(C)C)[C@H]2O)[C@](C)(O)C[C@@H](C)C(=O)[C@H](C)[C@@H](O)[C@]1(C)O [Erythromycin] | ↑Rilpivirine | ↔Dolutegravir
CC[C@H]1OC(=O)[C@H](C)C(=O)[C@H](C)[C@@H](O[C@@H]2O[C@H](C)C[C@H](N(C)C)[C@H]2O)[C@](C)(OC)C[C@@H](C)C(=O)[C@H](C)[C@H]2N(CCCCn3cnc(-c4cccnc4)c3)C(=O)O[C@]12C [Telithromycin] | ↑Rilpivirine | ↔Dolutegravir
O=C1NC(=O)C(c2ccccc2)(c2ccccc2)N1 [Phenytoin] | ↓Rilpivirine | 
CCC(=O)C(CC(C)N(C)C)(c1ccccc1)c1ccccc1 (stereo not shown) [Methadone] | ↔Rilpivirine | ↔Dolutegravir
NC(N)=Nc1nc(CSCCC(N)=NS(N)(=O)=O)cs1 [Famotidine] | ↓Rilpivirine | ↔Dolutegravir
NC(=O)N1c2ccccc2CC(=O)c2ccccc21 [Oxcarbazepine] | ↓Rilpivirine | 
CO[C@H]1/C=C/O[C@@]2(C)Oc3c(C)c(O)c4c(c3C2=O)C2=NC3(CCN(CC(C)C)CC3)NC2=C(NC(=O)/C(C)=C\C=C\[C@H](C)[C@H](O)[C@@H](C)[C@@H](O)[C@@H](C)[C@H](OC(C)=O)[C@@H]1C)C4=O [Rifabutin] | ↓Rilpivirine | ↔Dolutegravir
COc1ccnc(C[S+]([O-])c2nc3ccc(OC(F)F)cc3[nH]2)c1OC (stereo not shown) [Pantoprazole] | ↓Rilpivirine | 
CNC(=C[N+](=O)[O-])NCCSCc1ccc(CN(C)C)o1 [Ranitidine] | ↓Rilpivirine | ↔Dolutegravir
Sucralfate |  | ↓Dolutegravir
COCCCOc1ccnc(C[S+]([O-])c2nc3ccccc3[nH]2)c1C (stereo not shown) [Rabeprazole] | ↓Rilpivirine | 
CO[C@H]1/C=C/O[C@@]2(C)Oc3c(C)c(O)c4c(O)c(c(/C=N/N5CCN(C6CCCC6)CC5)c(O)c4c3C2=O)NC(=O)/C(C)=C\C=C\[C@H](C)[C@H](O)[C@@H](C)[C@@H](O)[C@@H](C)[C@H](OC(C)=O)[C@@H]1C [Rifapentine] | ↓Rilpivirine | 
Cc1c(OCC(F)(F)F)ccnc1C[S+]([O-])c1nc2ccccc2[nH]1 (stereo not shown) [Lansoprazole] | ↓Rilpivirine | 
CC[C@H]1OC(=O)[C@H](C)[C@@H](O[C@H]2C[C@@](C)(OC)[C@@H](O)[C@H](C)O2)[C@H](C)[C@@H](O[C@@H]2O[C@H](C)C[C@H](N(C)C)[C@H]2O)[C@](C)(OC)C[C@@H](C)C(=O)[C@H](C)[C@@H](O)[C@]1(C)O [Clarithromycin] | ↑Rilpivirine | ↔Dolutegravir
